According to patent publication US20120231069A1, “Targeted Nanocarrier Systems for Delivery of Actives Across Biological Membranes” (Access Pharmaceuticals, Inc., priority 2011, published 2012):

Test system: Diabetic Rats
Assay: Blood glucose reduction in streptozotocin-diabetic rats after oral gavage
Assay type: in vivo
Conditions: diabetic female Wistar rats, oral gavage 0.5 mL of 20 IU/mL insulin
Description: Female Wistar rats (200 g) were housed at room temperature with 12 h light/dark cycle. All animals had ad libitum access to a standard chow diet and water except wherever indicated. The rats were allowed to acclimatize for a period of 7 days in the new environment before initiation of the experiment. After randomization into groups of 4, each rat was marked and followed individually throughout the study. All rats were fasted for 1 hour. Streptozotocin obtained from Sigma (98% HPLC) was administered by IV injection at a dose of 55-65 mg/kg in 0.1M citrate buffer (pH 4.5) followed by an additional 1 hour fast. Blood was collected daily from the tail and blood glucose levels were measured using an Accu-Chek® (Compact Plus-Roche) blood glucose monitor. When all animals in the group had achieved a blood glucose level of >250 mg/dl (5 days) the insulin metabolism phase was begun. All animals were fasted for 1 hour and a blood glucose measurement taken (T=0). Groups of rats were dosed by oral gavage with 0.5 mL of an aqueous preparation of insulin nanoparticles (containing 20 IU/mL of insulin) of example 9, or 0.5 mL of an aqueous solution of bovine insulin (20 IU/mL). The animals were then fasted for another hour and blood glucose levels were measured at 1, 4, 8 and 24 hours after dosing.

plain insulin formulation: aqueous solution of bovine insulin (20 IU/mL), oral comparator
increase in blood glucose level (compared to T=0) (8 hours after dosing): 1% | increase in blood glucose level (compared to T=0) (24 hours after dosing): 21%
